# Measurements published in US10729768B2, “Combination of anti-CD20 antibody and PI3 kinase selective inhibitor” (TG Therapeutics, Inc., priority 2012, dated 2020).
# Columns and labels:
# Type in all cases: cell-based
# [1] = system: Daudi, RPMI-8226, Raji, and U266B1 cells; test: in situ caspase-3 kit, apoptosis (Example 3), cell lines tested; settings: 1 μM, cell lines, 24 hrs
# Method: In order to determine the effect of S-isomer of a compound of formula A, UBX, and combinations thereof on apoptosis in cancer cells, an in situ caspase-3 kit (Millipore) was used. Cells were plated in a 6 well plate at a concentration of 0.5×10^6 cells/ml, treated with either S-isomer of a compound of formula A (1000 nM), UBX (100 μg/ml to 0.1 μg/ml), or UBX with S-isomer of a compound of formula A at 1000 nM, and incubated for 24 hrs at 37° C. and 5% CO2. The cells were then transferred to microfuge tubes to receive 10 μl of freshly prepared FLICA™ reagent and incubated for 1 hour at 37° C. and 5% CO2 away from light. After extensive washes with wash buffer, test samples were adjusted to equalize the number of cells in PBS. 100 μl of each cell suspension was transferred to black 96-well plates in duplicates, and the fluorescence was read at an excitation wavelength of 490 nm and an emission wavelength of 520 nm in a plate reader. The fluorescence intensity for a DMSO control was subtracted from that of test compounds. Data was expressed as a percent of the maximum response (100%) and plotted accordingly.
# DB Cells = test: cell cycle assay, flow cytometry; settings: DB cells
# Method: (§1) A cell cycle assay reagent (Millipore) was used to determine the effect of S-isomer of a compound of formula A, UBX, and combinations thereof on the cell cycle in cancerous cells. […] The cells were transferred to microfuge tubes to receive 50 μl of cell cycle reagent and incubated for 30 minutes at RT away from light. Cells were then diluted with 300-400 μl PBS, and a minimum of 10,000 events were acquired on a Guava® easyCyte™ flow cytometer. The data was analyzed with Express Pro software and the percentage of the cell population in different cell cycle stages with respect to control was presented in histograms.
# U266B1 cells = test: cell cycle assay, flow cytometry
# Method: as §1
# Raji Cells = test: cell cycle assay, flow cytometry
# Method: as §1
# Daudi cells = test: cell cycle assay, flow cytometry
# Method: as §1
smiles,measurement,setting,value
"CC(C)Oc1ccc(-c2nn([C@@H](C)c3oc4ccc(F)cc4c(=O)c3-c3cccc(F)c3)c3ncnc(N)c23)cc1F [S-isomer, (S)-2-(1-(4-amino-3-(3-fluoro-4-isopropoxyphenyl)-1H-pyrazolo[3,4-d]pyrimidin-1-yl)ethyl)-6-fluoro-3-(3-fluorophenyl)-4H-chromen-4-one]",Caspase-3 activity increase,[1],40-75%
same,"G0/G1, percentage of the cell population","DB Cells; 72 h, 0.1 nM",54.37
same,"G2/M, percentage of the cell population","DB Cells; 72 h, 0.1 nM",39.41
same,"S, percentage of the cell population","DB Cells; 72 h, 0.1 nM",4.84
same,"Sub G0, percentage of the cell population","DB Cells; 72 h, 0.1 nM",0.84
same,"G0/G1, percentage of the cell population","DB Cells; 72 h, 1 nM",50.61
same,"G2/M, percentage of the cell population","DB Cells; 72 h, 1 nM",41.44
same,"S, percentage of the cell population","DB Cells; 72 h, 1 nM",6.53
same,"Sub G0, percentage of the cell population","DB Cells; 72 h, 1 nM",0.54
same,"G0/G1, percentage of the cell population","DB Cells; 72 h, 10 nM",47.22
same,"G2/M, percentage of the cell population","DB Cells; 72 h, 10 nM",46.85
same,"S, percentage of the cell population","DB Cells; 72 h, 10 nM",4.98
same,"Sub G0, percentage of the cell population","DB Cells; 72 h, 10 nM",0.55
same,"G0/G1, percentage of the cell population","DB Cells; 72 h, 100 nM",41.21
same,"G2/M, percentage of the cell population","DB Cells; 72 h, 100 nM",50.22
same,"S, percentage of the cell population","DB Cells; 72 h, 100 nM",6.96
same,"Sub G0, percentage of the cell population","DB Cells; 72 h, 100 nM",0.43
same,"G0/G1, percentage of the cell population","DB Cells; 72 h, 1000 nM",0.75
same,"G2/M, percentage of the cell population","DB Cells; 72 h, 1000 nM",92.79
same,"S, percentage of the cell population","DB Cells; 72 h, 1000 nM",0.42
same,"Sub G0, percentage of the cell population","DB Cells; 72 h, 1000 nM",5.36
same,"G0/G1, percentage of the cell population","DB Cells; 72 h, 10,000 nM",1.40
same,"G2/M, percentage of the cell population","DB Cells; 72 h, 10,000 nM",94.87
same,"S, percentage of the cell population","DB Cells; 72 h, 10,000 nM",0.89
same,"Sub G0, percentage of the cell population","DB Cells; 72 h, 10,000 nM",2.06
same,"G0/G1, percentage of the cell population","U266B1 cells; 72 h, 0.1 nM",59.26
same,"G2/M, percentage of the cell population","U266B1 cells; 72 h, 0.1 nM",30.71
same,"S, percentage of the cell population","U266B1 cells; 72 h, 0.1 nM",6.55
same,"Sub G0, percentage of the cell population","U266B1 cells; 72 h, 0.1 nM",2.75
same,"G0/G1, percentage of the cell population","U266B1 cells; 72 h, 1 nM",57.73
same,"G2/M, percentage of the cell population","U266B1 cells; 72 h, 1 nM",36.19
same,"S, percentage of the cell population","U266B1 cells; 72 h, 1 nM",4.87
same,"Sub G0, percentage of the cell population","U266B1 cells; 72 h, 1 nM",0.94
same,"G0/G1, percentage of the cell population","U266B1 cells; 72 h, 10 nM",55.33
same,"G2/M, percentage of the cell population","U266B1 cells; 72 h, 10 nM",39.28
same,"S, percentage of the cell population","U266B1 cells; 72 h, 10 nM",5.38
same,"Sub G0, percentage of the cell population","U266B1 cells; 72 h, 10 nM",0.76
same,"G0/G1, percentage of the cell population","U266B1 cells; 72 h, 100 nM",48.69
same,"G2/M, percentage of the cell population","U266B1 cells; 72 h, 100 nM",45.76
same,"S, percentage of the cell population","U266B1 cells; 72 h, 100 nM",5.49
same,"Sub G0, percentage of the cell population","U266B1 cells; 72 h, 100 nM",0.75
same,"G0/G1, percentage of the cell population","U266B1 cells; 72 h, 1000 nM",47.80
same,"G2/M, percentage of the cell population","U266B1 cells; 72 h, 1000 nM",47.13
same,"S, percentage of the cell population","U266B1 cells; 72 h, 1000 nM",4.69
same,"Sub G0, percentage of the cell population","U266B1 cells; 72 h, 1000 nM",0.88
same,"G0/G1, percentage of the cell population","U266B1 cells; 72 h, 10,000 nM",2.00
same,"G2/M, percentage of the cell population","U266B1 cells; 72 h, 10,000 nM",64.31
same,"S, percentage of the cell population","U266B1 cells; 72 h, 10,000 nM",0.94
same,"Sub G0, percentage of the cell population","U266B1 cells; 72 h, 10,000 nM",28.88
same,"G0/G1, percentage of the cell population","Raji Cells; 72 h, 0.1 nM",56.54
same,"G2/M, percentage of the cell population","Raji Cells; 72 h, 0.1 nM",33.63
same,"S, percentage of the cell population","Raji Cells; 72 h, 0.1 nM",8.38
same,"Sub G0, percentage of the cell population","Raji Cells; 72 h, 0.1 nM",1.32
same,"G0/G1, percentage of the cell population","Raji Cells; 72 h, 1 nM",56.93
same,"G2/M, percentage of the cell population","Raji Cells; 72 h, 1 nM",34.13
same,"S, percentage of the cell population","Raji Cells; 72 h, 1 nM",5.51
same,"Sub G0, percentage of the cell population","Raji Cells; 72 h, 1 nM",1.89
same,"G0/G1, percentage of the cell population","Raji Cells; 72 h, 10 nM",55.96
same,"G2/M, percentage of the cell population","Raji Cells; 72 h, 10 nM",34.81
same,"S, percentage of the cell population","Raji Cells; 72 h, 10 nM",5.80
same,"Sub G0, percentage of the cell population","Raji Cells; 72 h, 10 nM",1.06
same,"G0/G1, percentage of the cell population","Raji Cells; 72 h, 100 nM",52.81
same,"G2/M, percentage of the cell population","Raji Cells; 72 h, 100 nM",37.80
same,"S, percentage of the cell population","Raji Cells; 72 h, 100 nM",6.72
same,"Sub G0, percentage of the cell population","Raji Cells; 72 h, 100 nM",1.04
same,"G0/G1, percentage of the cell population","Raji Cells; 72 h, 1000 nM",52.04
same,"G2/M, percentage of the cell population","Raji Cells; 72 h, 1000 nM",41.21
same,"S, percentage of the cell population","Raji Cells; 72 h, 1000 nM",3.92
same,"Sub G0, percentage of the cell population","Raji Cells; 72 h, 1000 nM",1.29
same,"G0/G1, percentage of the cell population","Raji Cells; 72 h, 10,000 nM",10.12
same,"G2/M, percentage of the cell population","Raji Cells; 72 h, 10,000 nM",58.09
same,"S, percentage of the cell population","Raji Cells; 72 h, 10,000 nM",23.17
same,"Sub G0, percentage of the cell population","Raji Cells; 72 h, 10,000 nM",4.90
same,"G0/G1, percentage of the cell population","Daudi cells; 72 h, 0.1 nM",49.56
same,"G2/M, percentage of the cell population","Daudi cells; 72 h, 0.1 nM",33.23
same,"S, percentage of the cell population","Daudi cells; 72 h, 0.1 nM",14.13
same,"Sub G0, percentage of the cell population","Daudi cells; 72 h, 0.1 nM",0.34
same,"G0/G1, percentage of the cell population","Daudi cells; 72 h, 1 nM",48.11
same,"G2/M, percentage of the cell population","Daudi cells; 72 h, 1 nM",36.75
same,"S, percentage of the cell population","Daudi cells; 72 h, 1 nM",13.27
same,"Sub G0, percentage of the cell population","Daudi cells; 72 h, 1 nM",0.74
same,"G0/G1, percentage of the cell population","Daudi cells; 72 h, 10 nM",46.84
same,"G2/M, percentage of the cell population","Daudi cells; 72 h, 10 nM",37.79
same,"S, percentage of the cell population","Daudi cells; 72 h, 10 nM",12.55
same,"Sub G0, percentage of the cell population","Daudi cells; 72 h, 10 nM",1.68
same,"G0/G1, percentage of the cell population","Daudi cells; 72 h, 100 nM",47.39
same,"G2/M, percentage of the cell population","Daudi cells; 72 h, 100 nM",38.05
same,"S, percentage of the cell population","Daudi cells; 72 h, 100 nM",11.33
same,"Sub G0, percentage of the cell population","Daudi cells; 72 h, 100 nM",1.30
same,"G0/G1, percentage of the cell population","Daudi cells; 72 h, 1000 nM",48.27
same,"G2/M, percentage of the cell population","Daudi cells; 72 h, 1000 nM",40.10
same,"S, percentage of the cell population","Daudi cells; 72 h, 1000 nM",7.91
same,"Sub G0, percentage of the cell population","Daudi cells; 72 h, 1000 nM",2.22
same,"G0/G1, percentage of the cell population","Daudi cells; 72 h, 10,000 nM",2.53
same,"G2/M, percentage of the cell population","Daudi cells; 72 h, 10,000 nM",65.03
same,"S, percentage of the cell population","Daudi cells; 72 h, 10,000 nM",21.92
same,"Sub G0, percentage of the cell population","Daudi cells; 72 h, 10,000 nM",5.01
